Measurements published in patent US6465457B1 (priority 1991, dated 2002).
Read-outs that look alike come from different tables or passages of the source.

How the values were obtained:
Assay type in all cases: in vivo
[1] = tested on: Pyricularia oryzae (Rice); settings: one or two days before inoculation
[2] = tested on: Phytophthora infestans (Tomatoes); settings: one or two days before inoculation
[3] = tested on: Puccinia recondita (Wheat); test: Foliar fungal disease test on plants: Puccinia recondita (Wheat); settings: plants inoculated with Puccinia recondita 48 hours before treatment
[4] = tested on: Erysiphe graminis tritici (Wheat); test: Foliar fungal disease test on plants: Erysiphe graminis tritici (Wheat); settings: plants inoculated 24 hours before treatment
[5] = tested on: Plasmopara viticola (Vines); test: Foliar fungal disease test on plants: Plasmopara viticola (Vines); settings: one or two days before inoculation
Septoria nodorum (Wheat) = test: Foliar fungal disease test on plants: Septoria nodorum (Wheat); settings: one or two days before inoculation
[6] = tested on: Thanatephorus cucumeries (Rice); test: Foliar fungal disease test on plants: Thanatephorus cucumeries (Rice); settings: one or two days before inoculation
[7] = tested on: Venturia inaequalis (Apples); test: Foliar fungal disease test on plants: Venturia inaequalis (Apples); settings: one or two days before inoculation
[8] = 100 ppm a.i. foliar spray or root drench (approx. 40 ppm in dry soil)
[9] = 100 ppm a.i. foliar spray or root drench

SMILES: COC=C(C(=O)OC)c1ccccc1COC(=O)Nc1ccccc1C(F)(F)F [18 (1)]
- POCO (Percentage of Control) disease level, Pyricularia oryzae (Rice) [1, 8]: 60 (60 = 30.1-60% disease present)
- POCO (Percentage of Control) disease level, Phytophthora infestans (Tomatoes) [2, 8]: 90 (90 and 94 = 60.1-100% disease present)
- POCO (Percentage of Control) disease level, Puccinia recondita (Wheat) [3, 9]: 90+ (90 and 94 = 60.1-100% disease present)
- POCO (Percentage of Control) disease level, Erysiphe graminis tritici (Wheat) [4, 8]: 90 (90 and 94 = 60.1-100% disease present)
- POCO (Percentage of Control) disease level, Plasmopara viticola (Vines) [5, 8]: 0 (0 = 0% disease present)
- POCO (Percentage of Control) disease level, Septoria nodorum (Wheat) (Septoria nodorum (Wheat); [8]): 90 (90 and 94 = 60.1-100% disease present)
- POCO (Percentage of Control) disease level, Thanatephorus cucumeries (Rice) [6, 8]: 90 (90 and 94 = 60.1-100% disease present)
- POCO (Percentage of Control) disease level, Venturia inaequalis (Apples) [7, 8]: 3 (3 = 1.1-3% disease present)

SMILES: COC=C(C(=O)OC)c1ccccc1COC(=O)N(C)c1ccccc1C(F)(F)F [18 (2)]
- POCO (Percentage of Control) disease level, Pyricularia oryzae (Rice) [1, 8]: 60 (60 = 30.1-60% disease present)
- POCO (Percentage of Control) disease level, Phytophthora infestans (Tomatoes) [2, 8]: 90 (90 and 94 = 60.1-100% disease present)
- POCO (Percentage of Control) disease level, Puccinia recondita (Wheat) [3, 9]: 90+ (90 and 94 = 60.1-100% disease present)
- POCO (Percentage of Control) disease level, Erysiphe graminis tritici (Wheat) [4, 8]: 60 (60 = 30.1-60% disease present)
- POCO (Percentage of Control) disease level, Plasmopara viticola (Vines) [5, 8]: 3 (3 = 1.1-3% disease present)
- POCO (Percentage of Control) disease level, Septoria nodorum (Wheat) (Septoria nodorum (Wheat); [8]): 90 (90 and 94 = 60.1-100% disease present)
- POCO (Percentage of Control) disease level, Thanatephorus cucumeries (Rice) [6, 8]: 60 (60 = 30.1-60% disease present)
- POCO (Percentage of Control) disease level, Venturia inaequalis (Apples) [7, 8]: 3 (3 = 1.1-3% disease present)

SMILES: C=CCNC(=O)OCc1ccccc1C(=COC)C(=O)OC [20 (1)]
- POCO (Percentage of Control) disease level, Pyricularia oryzae (Rice) [1, 8]: 20 (20 and 24 = 10.1-20% disease present)
- POCO (Percentage of Control) disease level, Phytophthora infestans (Tomatoes) [2, 8]: 60 (60 = 30.1-60% disease present)
- POCO (Percentage of Control) disease level, Puccinia recondita (Wheat) [3, 9]: 3+ (3 = 1.1-3% disease present)
- POCO (Percentage of Control) disease level, Erysiphe graminis tritici (Wheat) [4, 8]: 20 (20 and 24 = 10.1-20% disease present)
- POCO (Percentage of Control) disease level, Plasmopara viticola (Vines) [5, 8]: 90 (90 and 94 = 60.1-100% disease present)
- POCO (Percentage of Control) disease level, Septoria nodorum (Wheat) (Septoria nodorum (Wheat); [8]): 90 (90 and 94 = 60.1-100% disease present)
- POCO (Percentage of Control) disease level, Thanatephorus cucumeries (Rice) [6, 8]: 90 (90 and 94 = 60.1-100% disease present)
- POCO (Percentage of Control) disease level, Venturia inaequalis (Apples) [7, 8]: 5 (5 = 3.1-5% disease present)

SMILES: COC=C(C(=O)OC)c1ccccc1COC(=O)N(C)c1ccccc1SC [21 (2)]
- POCO (Percentage of Control) disease level, Pyricularia oryzae (Rice) ([1]; 10 ppm foliar spray only): 30 (30 = 20.1-30% disease present)
- POCO (Percentage of Control) disease level, Phytophthora infestans (Tomatoes) ([2]; 10 ppm foliar spray only): 90 (90 and 94 = 60.1-100% disease present)
- POCO (Percentage of Control) disease level, Puccinia recondita (Wheat) ([3]; 10 ppm foliar spray only): 90+ (90 and 94 = 60.1-100% disease present)
- POCO (Percentage of Control) disease level, Erysiphe graminis tritici (Wheat) ([4]; 10 ppm foliar spray only): 90 (90 and 94 = 60.1-100% disease present)
- POCO (Percentage of Control) disease level, Plasmopara viticola (Vines) ([5]; 10 ppm foliar spray only): 0 (0 = 0% disease present)
- POCO (Percentage of Control) disease level, Septoria nodorum (Wheat) (Septoria nodorum (Wheat); 10 ppm foliar spray only): 60 (60 = 30.1-60% disease present)
- POCO (Percentage of Control) disease level, Thanatephorus cucumeries (Rice) ([6]; 10 ppm foliar spray only): 90 (90 and 94 = 60.1-100% disease present)
- POCO (Percentage of Control) disease level, Venturia inaequalis (Apples) ([7]; 10 ppm foliar spray only): 60 (60 = 30.1-60% disease present)

SMILES: COC=C(C(=O)OC)c1ccccc1COC(=O)Nc1c(F)cccc1F [23 (1)]
- POCO (Percentage of Control) disease level, Pyricularia oryzae (Rice) [1, 8]: 30 (30 = 20.1-30% disease present)
- POCO (Percentage of Control) disease level, Phytophthora infestans (Tomatoes) [2, 8]: 90 (90 and 94 = 60.1-100% disease present)
- POCO (Percentage of Control) disease level, Puccinia recondita (Wheat) [3, 9]: 30+ (30 = 20.1-30% disease present)
- POCO (Percentage of Control) disease level, Erysiphe graminis tritici (Wheat) [4, 8]: 0 (0 = 0% disease present)
- POCO (Percentage of Control) disease level, Plasmopara viticola (Vines) [5, 8]: 0 (0 = 0% disease present)
- POCO (Percentage of Control) disease level, Septoria nodorum (Wheat) (Septoria nodorum (Wheat); [8]): 30 (30 = 20.1-30% disease present)
- POCO (Percentage of Control) disease level, Thanatephorus cucumeries (Rice) [6, 8]: 0 (0 = 0% disease present)
- POCO (Percentage of Control) disease level, Venturia inaequalis (Apples) [7, 8]: 0 (0 = 0% disease present)

SMILES: COC=C(C(=O)OC)c1ccccc1COC(=O)N(C)c1c(F)cccc1F [23 (2)]
- POCO (Percentage of Control) disease level, Pyricularia oryzae (Rice) [1, 8]: 0 (0 = 0% disease present)
- POCO (Percentage of Control) disease level, Phytophthora infestans (Tomatoes) [2, 8]: 0 (0 = 0% disease present)
- POCO (Percentage of Control) disease level, Puccinia recondita (Wheat) [3, 9]: 0+ (0 = 0% disease present)
- POCO (Percentage of Control) disease level, Erysiphe graminis tritici (Wheat) [4, 8]: 0 (0 = 0% disease present)
- POCO (Percentage of Control) disease level, Plasmopara viticola (Vines) [5, 8]: 0 (0 = 0% disease present)
- POCO (Percentage of Control) disease level, Septoria nodorum (Wheat) (Septoria nodorum (Wheat); [8]): 0 (0 = 0% disease present)
- POCO (Percentage of Control) disease level, Thanatephorus cucumeries (Rice) [6, 8]: 0 (0 = 0% disease present)
- POCO (Percentage of Control) disease level, Venturia inaequalis (Apples) [7, 8]: 0 (0 = 0% disease present)

SMILES: CCN(C(=O)OCc1ccccc1C(=COC)C(=O)OC)c1c(F)cccc1F [23 (3)]
- POCO (Percentage of Control) disease level, Pyricularia oryzae (Rice) [1, 8]: 1 (1 = 0.1-1% disease present)
- POCO (Percentage of Control) disease level, Phytophthora infestans (Tomatoes) [2, 8]: 5 (5 = 3.1-5% disease present)
- POCO (Percentage of Control) disease level, Puccinia recondita (Wheat) [3, 9]: 0+ (0 = 0% disease present)
- POCO (Percentage of Control) disease level, Erysiphe graminis tritici (Wheat) [4, 8]: 0 (0 = 0% disease present)
- POCO (Percentage of Control) disease level, Plasmopara viticola (Vines) [5, 8]: 0 (0 = 0% disease present)
- POCO (Percentage of Control) disease level, Septoria nodorum (Wheat) (Septoria nodorum (Wheat); [8]): 5 (5 = 3.1-5% disease present)
- POCO (Percentage of Control) disease level, Thanatephorus cucumeries (Rice) [6, 8]: 0 (0 = 0% disease present)
- POCO (Percentage of Control) disease level, Venturia inaequalis (Apples) [7, 8]: 0 (0 = 0% disease present)

SMILES: C=CCN(C(=O)OCc1ccccc1C(=COC)C(=O)OC)c1c(F)cccc1F [23 (101)]
- POCO (Percentage of Control) disease level, Pyricularia oryzae (Rice) [1, 8]: 0 (0 = 0% disease present)
- POCO (Percentage of Control) disease level, Phytophthora infestans (Tomatoes) [2, 8]: 90 (90 and 94 = 60.1-100% disease present)
- POCO (Percentage of Control) disease level, Puccinia recondita (Wheat) [3, 9]: 0+ (0 = 0% disease present)
- POCO (Percentage of Control) disease level, Erysiphe graminis tritici (Wheat) [4, 8]: 0 (0 = 0% disease present)
- POCO (Percentage of Control) disease level, Plasmopara viticola (Vines) [5, 8]: 0 (0 = 0% disease present)
- POCO (Percentage of Control) disease level, Septoria nodorum (Wheat) (Septoria nodorum (Wheat); [8]): 10 (10 = 5.1-10% disease present)
- POCO (Percentage of Control) disease level, Thanatephorus cucumeries (Rice) [6, 8]: 0 (0 = 0% disease present)
- POCO (Percentage of Control) disease level, Venturia inaequalis (Apples) [7, 8]: 0 (0 = 0% disease present)

SMILES: CCN(C(=O)OCc1ccccc1C(=COC)C(=O)OC)c1ccc(F)cc1F [24 (3)]
- POCO (Percentage of Control) disease level, Pyricularia oryzae (Rice) [1, 8]: 10 (10 = 5.1-10% disease present)
- POCO (Percentage of Control) disease level, Phytophthora infestans (Tomatoes) [2, 8]: 60 (60 = 30.1-60% disease present)
- POCO (Percentage of Control) disease level, Puccinia recondita (Wheat) [3, 9]: 0+ (0 = 0% disease present)
- POCO (Percentage of Control) disease level, Erysiphe graminis tritici (Wheat) [4, 8]: 0 (0 = 0% disease present)
- POCO (Percentage of Control) disease level, Plasmopara viticola (Vines) [5, 8]: 0 (0 = 0% disease present)
- POCO (Percentage of Control) disease level, Septoria nodorum (Wheat) (Septoria nodorum (Wheat); [8]): 0 (0 = 0% disease present)
- POCO (Percentage of Control) disease level, Thanatephorus cucumeries (Rice) [6, 8]: 0 (0 = 0% disease present)
- POCO (Percentage of Control) disease level, Venturia inaequalis (Apples) [7, 8]: 0 (0 = 0% disease present)

SMILES: COC=C(C(=O)OC)c1ccccc1OC(=O)Nc1ccc(F)cc1F [24 (17)]
- POCO (Percentage of Control) disease level, Pyricularia oryzae (Rice) [1, 8]: 0 (0 = 0% disease present)
- POCO (Percentage of Control) disease level, Phytophthora infestans (Tomatoes) [2, 8]: 0 (0 = 0% disease present)
- POCO (Percentage of Control) disease level, Puccinia recondita (Wheat) [3, 9]: 0+ (0 = 0% disease present)
- POCO (Percentage of Control) disease level, Erysiphe graminis tritici (Wheat) [4, 8]: 0 (0 = 0% disease present)
- POCO (Percentage of Control) disease level, Plasmopara viticola (Vines) [5, 8]: 0 (0 = 0% disease present)
- POCO (Percentage of Control) disease level, Septoria nodorum (Wheat) (Septoria nodorum (Wheat); [8]): 0 (0 = 0% disease present)
- POCO (Percentage of Control) disease level, Thanatephorus cucumeries (Rice) [6, 8]: 60 (60 = 30.1-60% disease present)
- POCO (Percentage of Control) disease level, Venturia inaequalis (Apples) [7, 8]: 0 (0 = 0% disease present)
